Laboratory results taken from patent US20130225675A1, “BACTERIAL CONTROL OF WATER BASED FLUIDS DURING […] AND […] TIME IN THE SU[…]” (SCHLUMBERGER TECHNOLOGY CORPORATION, priority 2010, published 2013).

Test system: Sulfate-Reducing Bacteria
Assay: Qualitative test kit specific to sulfate-reducing bacteria, produced water samples
Format: cell-based
Details: produced water from the Piceance basin, 250 ppm glutaraldehyde, "Glut+butenolide" with a further 125 ppm butenolide
Method: Produced water samples from the Piceancebasin were tested for bacterial content in a simple qualitative test kit manufactured by “Droycon Boiconcepts Inc., specific to Sulfate-Reducing Bacteria. Three kits were used, labeled “No treatment”, “Glutaraldehyde”, and “Glut+butenolide”. The latter two bottles were treated with 250 ppm glutaraldehyde.
FIG. 1 is a photograph series that compares the experimental results of testing the effectiveness of biocide compositions.

O=CCCCC=O [Glutaraldehyde, glutaraldehyde]
appearance of the test bottle (black residues characteristic of the presence of SRBs) (after 14 days): clear and pale yellow | appearance of the test bottle (re-growth of SRBs, fine black residues) (after 17 days): begun to show re-growth of SRBs
